The test system of the test is IL-8. As to the kind of experiment: IL-8 release by PHA-stimulated PBL (ELISA). Format: cell-based, human. Conditions: Example 4, GR-192 PBL; 15 μg/ml Cpd II, 10 μM Dex; PHA 2 μg/ml, 96 hours; FIG. 8. On the procedure: Whole blood was drawn from GR-192, a normal human volunteer, and processed as described in Example 1 to give heat-inactivated serum and PBL. […] After this incubation, PHA was added to give a final concentration of 2 μg/ml, and the cells were incubated for an additional 96 hours at 37° C., 5% CO2. All cultures were performed in triplicate. Cells were then removed by centrifugation at 1000 rpm for 10 minutes, and the culture medium collected.
To perform the ELISA, matched pairs of antibodies against human IL-8 were purchased from Pierce Biotechnology and Biosource, respectively. ELISA strip well plates were coated with 2 μg/ml of antibody to IL-8 (in phosphate-buffered saline (PBS)) overnight at room temperature. The plates were then blocked using a 4% BSA solution in PBS for one hour, followed by the addition of 50 μl of experimental culture medium per well in duplicate. The plates were incubated at room temperature for one hour and then washed using 50 mM Tris pH 8.0 with 0.1% Tween 20. Then, solutions of 100 ng/ml biotinylated second antibody to IL-8 were made in blocking buffer, and 100 μl were added per well. The plates were incubated for 1 hour and washed again. […] OD was determined using microplate reader with a 450 nm filter.

SMILES strings stand for the structures.

Take `COC(=O)C(c1ccc(-c2ccccc2)cc1)C1CCCCN1` (stereo not shown) [Cpd II]: the “IL-8 release induced by PHA” value was “significantly inhibited IL-8 release”.

(Values after patent US8076485B2, “Methylphenidate derivatives and uses of them” (priority 2005, dated 2011).)
